Reference: PubChem BioAssay AID1552 (Sanford-Burnham Center for Chemical Genomics, 2009)
The source made the active and inactive calls. How the calls were made is not given here.

Target: Ubiquitin-conjugating enzyme E2 N (Homo sapiens) (UniProt P61088)
Test: NMR detection of UBE2N ligand binding – biophysical, purified protein (AID 1552)
Conditions: NMR binding to purified UBE2N

Chain of Ubiquitin-conjugating enzyme E2 N (Homo sapiens) (P61088 whole entry, looked up): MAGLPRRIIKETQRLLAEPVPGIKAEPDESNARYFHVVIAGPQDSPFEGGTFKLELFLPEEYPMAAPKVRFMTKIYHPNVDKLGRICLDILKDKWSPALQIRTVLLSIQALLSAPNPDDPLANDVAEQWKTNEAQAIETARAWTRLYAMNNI

SMILES | Kd
COC(=O)c1c[nH]c2ccccc12 | > 4 mM (inactive)
CNC(=S)Nc1ccc2c(c1)OCO2 | > 4 mM (inactive)
CC(=O)N1CC2(C)CN(C(C)=O)CC(C)(C1)C2O (stereo not given) | > 4 mM (inactive)
CCOC(=O)C(C)c1n[nH]c(=O)c2ccccc12 (stereo not given) | > 4 mM (inactive)
Nc1ccc(CN2CCOCC2)cc1 | > 4 mM (inactive)
CN(C)S(=O)(=O)N1CCc2ccccc21 | > 4 mM (inactive)
C=Cc1c(C)c2cc3[nH]c(cc4nc(cc5nc(cc1[nH]2)C(C)=C5CCC(=O)O)C(CCC(=O)O)=C4C)c(C)c3C=C | > 4 mM (inactive)
CC(C)[C@@H]1CC[C@@H](C)C[C@H]1OC(=O)c1ccccc1 | > 4 mM (inactive)
CC(=O)c1ccc(CC2SC(N)=NC2=O)cc1 (stereo not given) | > 4 mM (inactive)
C=CCc1cc(C(=O)N2CCCCC2)ccc1O | > 4 mM (inactive)
COCc1c(CN)cnc(C)c1N | > 4 mM (inactive)
COc1ccc2c(c1)OCc1c-2oc2cc(OC)ccc12 | > 4 mM (inactive)
CCOC(=O)c1cc(C)n(-n2cnnc2)c1C | > 4 mM (inactive)
CC(=O)Oc1ccc2c(c1C(C)C)CCC1C(C)(C)CCC[C@]21C (stereo not given in full) | > 4 mM (inactive)
O=C1C2CCCCC2C(=O)N1c1ccc(O)cc1 (stereo not given) | > 4 mM (inactive)
c1n[nH]cc1-c1cn[nH]c1 | > 4 mM (inactive)
C[C@]12CC(=O)C3C(CC[C@@H]4C[C@H](O)CC[C@]34C)C1CC[C@]2(O)C(=O)CO (stereo not given in full) | > 4 mM (inactive)
COc1cc2c(cc1OC)[C@@H]1C(=O)c3ccc4oc(C(C)C)cc4c3O[C@@H]1CO2 | > 4 mM (inactive)
O=C(Nc1nnc(-c2ccco2)o1)C1=COCCO1 | > 4 mM (inactive)
CCC(=O)OC1[C@@H]2CC3=C4CC(=O)O[C@@H](c5ccoc5)[C@]4(C)CCC3C(C)(C2=O)[C@@H](CC(=O)OC)C1(C)C (stereo not given in full) | > 4 mM (inactive)
COC(=O)CCC(C)C1CCC2C3CCC4C[C@H](O)CC[C@]4(C)C3C[C@H](O)[C@]12C (stereo not given in full) | > 4 mM (inactive)
COc1c2c(cc3cc[n+](C)cc13)OCO2 | > 4 mM (inactive)
O=c1cnnc(Nc2ccc(O)cc2)[nH]1 | > 4 mM (inactive)
CC(C)/C(O)=C1/C(=O)O[C@@H](c2ccoc2)[C@]2(C)C(O)[C@@H](O)[C@@]34OC5(C)OC67CC(C)(C(O)[C@]6(O)[C@@H](O)[C@]3(O5)C12)[C@H](CC(=O)O)[C@]74C (stereo not given in full) | > 4 mM (inactive)

SMILES | Kd
COc1ccc(S(=O)(=O)NCCO)cc1 | > 4 mM (inactive)
ON=c1ccc2nc3ccccc3nc2cc1 | > 4 mM (inactive)
COc1c2c(cc3c1OCO3)C13C=C[C@H](OC)CC1N(C2)CC3O (stereo not given in full) | > 4 mM (inactive)
O=C(Nc1cnccn1)c1cccs1 | > 4 mM (inactive)
COc1ccc2c3c1O[C@H]1C[C@@H](O)C=C[C@@]31CCN(C)C2 | > 4 mM (inactive)
Nc1c(/C=C2\C=Nc3ccccc32)c(=O)nc2scnn12 | > 4 mM (inactive)
Nc1ccccc1C(=O)N1CCOCC1 | > 4 mM (inactive)
COc1ccc(CN2CCC(O)CC2)c(O)c1 | > 4 mM (inactive)
O=c1nc(N2CCCCC2)nc2n1CCO2 | > 4 mM (inactive)
O=S1(=O)C=CC(N2CCCCC2)C1 (stereo not given) | > 4 mM (inactive)
Cc1cc(C)nc(N2CC(=O)N(C)C2=N)n1 | > 4 mM (inactive)
N=Cc1c(O)n(-c2cccc(Cl)c2)c(=O)[nH]c1=O | > 4 mM (inactive)
Cn1nc(-c2cccs2)cc1N | > 4 mM (inactive)
COC(=O)c1cccnc1Oc1ccccc1 | > 4 mM (inactive)
Nc1ccccc1N1CCOCC1 | > 4 mM (inactive)
Cn1ncc(C(=O)NC2CCCCC2)c1Cl | > 4 mM (inactive)
CC1SC(=NC(=O)c2ccncc2)NC1=O (stereo not given) | > 4 mM (inactive)
NCc1n[nH]c(=O)c2ccccc12 | > 4 mM (inactive)
c1csc(-c2nn[nH]n2)c1 | > 4 mM (inactive)
Cc1cc(=O)n2[nH]c(COc3ccccc3)nc2n1 | > 4 mM (inactive)
Cc1onc(-c2ccccc2)c1CN | > 4 mM (inactive)
Cc1cccc(NC(=O)c2ccccc2C(=O)O)c1 | > 4 mM (inactive)
CC(=O)Nc1cc(C(N)=O)cc(C(N)=O)c1 | > 4 mM (inactive)
Cc1ccccc1-n1c(-c2ccncc2)n[nH]c1=S | > 4 mM (inactive)

SMILES | Kd
Cc1cc(NC(=O)Cc2cccs2)no1 | > 4 mM (inactive)
Cc1cc(N)n(C2CCOC(C)(C)C2)n1 (stereo not given) | > 4 mM (inactive)
CCOC(=O)N1CCN(c2ncnc3c2cnn3C)CC1 | > 4 mM (inactive)
Oc1ccc(C2SCCS2)cc1 | > 4 mM (inactive)
C=CCNC(=O)c1nn2cccnc2c1Cl | > 4 mM (inactive)
COc1ccc(C(=O)/C=C2\NC(=S)NC2=O)cc1 | > 4 mM (inactive)
CC(=O)O[C@H]1CC[C@@]2(C)C(=CCC3C2CC[C@@]2(C)C3CC[C@@H]2C(C)CCCC(C)C)C1 (stereo not given in full) | > 4 mM (inactive)
CC(=O)n1c(N)nc2ccccc21 | > 4 mM (inactive)
Cn1c(=O)c2[nH]c(Nc3ccccc3)nc2n(C)c1=O | > 4 mM (inactive)
O=C1CC(=O)N(Cc2ccco2)C(=S)N1 | > 4 mM (inactive)
OCC1CCN(Cc2ccccc2)CC1 | > 4 mM (inactive)
OC1CCNC2CCCCC12 (stereo not given) | > 4 mM (inactive)
Cc1ccc(C(=O)N2CC(=O)NC(=O)C2)cc1 | > 4 mM (inactive)
O=C1NC(=S)NC(=O)C1=Cc1cccs1 | > 4 mM (inactive)
CC1(C)CC23C(=O)CCC(O)C2(C)CCC13 (stereo not given) | > 4 mM (inactive)
Nc1nc(-c2ccc(O)cc2)cs1 | > 4 mM (inactive)
O=C1C2C3C=CC(C3)C2C(=O)N1CCO (stereo not given) | > 4 mM (inactive)
COc1ccc(-c2coc3cc(O)ccc3c2=O)c(O)c1O | > 4 mM (inactive)
c1cncc(Nc2nc(-c3cccnc3)cs2)c1 | > 4 mM (inactive)
COc1cccc(/C=N/N=C2/NC(=O)CS2)c1 | > 4 mM (inactive)
CCCS(=O)(=O)N1CCN(c2ccccn2)CC1 | > 4 mM (inactive)
NC(=O)NCCCC(N)C(=O)O (stereo not given) | > 4 mM (inactive)
Nc1nc(-c2ccc(Cl)cc2)nn1C(=O)c1cccnc1 | > 4 mM (inactive)
Nc1ccc(N2CCCCC2)cc1 | > 4 mM (inactive)

SMILES | Kd
Cc1cc(C)n2nc(-c3cccnc3)nc2n1 | > 4 mM (inactive)
COCC(=O)Nc1cc2c3c(c1)CCN3C(=O)CC2 | > 4 mM (inactive)
O=[n+]1c(CO)c(CO)n([O-])c2ccccc21 | > 4 mM (inactive)
O=C(O)c1ccc(-c2ccccn2)s1 | > 4 mM (inactive)
O=c1ccc2nc3ccccc3c(=O)n2[nH]1 | > 4 mM (inactive)
O=c1[nH]c(=O)c2[nH]cnc2[nH]1 | > 4 mM (inactive)
O=c1c[n+]([O-])c2ccccc2n1OCc1ccccn1 | > 4 mM (inactive)
O=C(Nc1ccccn1)C(=O)N1CCCC1 | > 4 mM (inactive)
CC(=O)OC1CC[C@@]2(C)C(CCC3C2CC[C@]2(C)C(C4=CC(=O)OC4)C(OC(C)=O)CC32O)C1 (stereo not given in full) | > 4 mM (inactive)
COC(=O)CCSCC(=O)Nc1nccs1 | > 4 mM (inactive)
CC(=O)c1c(C)nc(-c2cccs2)n1O | > 4 mM (inactive)
O=C(O)CCC(=O)Nc1ccccc1F | > 4 mM (inactive)
Cc1cc2ncc(C(=O)O)c(C)n2n1 | > 4 mM (inactive)
O=C(NC(=O)N1CCOCC1)c1ccccc1 | > 4 mM (inactive)
CN1CCC(NC(=O)c2cccnc2)CC1 | > 4 mM (inactive)
CC(=O)Nc1nnc(-c2ccccn2)o1 | > 4 mM (inactive)
CN1CCC(N2CCN(C)CC2)CC1 | > 4 mM (inactive)
CC(=O)c1cc2c(s1)SCC(=O)N2 | > 4 mM (inactive)
COc1ccc(C)cc1S(=O)(=O)NC1CCCC1 | > 4 mM (inactive)
OCc1ccc2nonc2c1 | > 4 mM (inactive)
C/C=C/c1ccc2c(c1)OCO2 | > 4 mM (inactive)
O=C(O)c1c[nH]c2ccccc12 | > 4 mM (inactive)
Cn1cc(Cl)c(C(=O)NC2CCCC2)n1 | > 4 mM (inactive)
Cc1ncoc1C(=O)Nc1ccccc1C(N)=O | > 4 mM (inactive)

SMILES | Kd
Cc1ccc(CNc2ccc(O)cc2)cc1 | > 4 mM (inactive)
CSc1nc(C)cc(Oc2ccc(=O)n(C)n2)n1 | > 4 mM (inactive)
CCOC(=O)c1c(C)nc2ncccn12 | > 4 mM (inactive)
NCc1csc2ccccc12 | > 4 mM (inactive)
COc1ccc(C(N)=O)cc1N | > 4 mM (inactive)
CCOC(=O)c1c(C)[nH]c2ccc(O)cc12 | > 4 mM (inactive)
Cc1c(N=Cc2ccco2)c(=O)n(-c2ccccc2)n1C | > 4 mM (inactive)
CCN1CCC(NC2CCCCNC2=O)CC1 (stereo not given) | > 4 mM (inactive)
O=C(NC(O)C(=O)c1ccccc1)c1ccco1 (stereo not given) | > 4 mM (inactive)
S=c1[nH]c2cccnc2[nH]1 | > 4 mM (inactive)
CC(C)(C)c1cc(NC(=O)c2cccnc2)no1 | > 4 mM (inactive)
CCc1noc(C)c1C(=O)Nc1ncc(C)s1 | > 4 mM (inactive)
Nc1nc(-c2cccnc2)nn1C(=O)Cc1ccccc1 | > 4 mM (inactive)
COC(=O)Nc1ccc2ncn(C)c(=O)c2c1 | > 4 mM (inactive)
CC(C)(C)NC(=O)N1CCC(C(N)=O)CC1 | > 4 mM (inactive)
CCc1cc2c(SCC(=O)O)ncnc2s1 | > 4 mM (inactive)
Cc1cc2nc3c(=O)[nH]c(=O)nc-3n(CC(O)C(O)C(O)CO)c2cc1C (stereo not given) | > 4 mM (inactive)
Cc1c(-c2ccccc2)[n+](=O)c(-c2ccco2)c(C)n1[O-] | > 4 mM (inactive)
COC(=O)C[C@H]1C(C)(C)C(=O)[C@@H]2CC3C4=CC(=O)O[C@@H](c5ccoc5)[C@]4(C)CCC3C1(C)C2=O (stereo not given in full) | > 4 mM (inactive)
Nc1scc[n+]1CC(=O)[O-] | > 4 mM (inactive)
Cc1ccc(-c2nn(C)c(=O)c3ccccc23)cc1CO | > 4 mM (inactive)
Cc1nnc(SCc2cccs2)[nH]c1=O | > 4 mM (inactive)
Cc1ccccc1-n1c(N)cc(=O)[nH]c1=S | > 4 mM (inactive)
C=C(C)[C@H]1COc2cc3oc(=O)ccc3cc2O1 | > 4 mM (inactive)
